Series [1] has as its system M. tuberculosis H37Rv. Put plainly: H37Rv MIC in GAST medium. The following applies: Mycobacterium tuberculosis, H37RV; read-out: GAST MIC. It is filed as cell-based, Mycobacterium tuberculosis.
Series [2] can be described thus: Calculated properties (StarDrop).
Series [3] addresses T1, recombinant MBP-MtNdh (MTb NDH-2) (Mycobacterium tuberculosis, UniProt P95160).
T1 construct: The ORF corresponding to Rv1854c was codon optimized for E. coli; made in house; host or cells: E. coli BL21 (DE3) pLysS
The experiment in a line: Ndh activity assay (NADH oxidation at 340 nm). It is filed as biochemical. The following applies: NADH 250 μM, Q2 40 μM; mean ± SD, Figure 6 inset; read-out: IC50 against MBP-MtNdh.

Series [4] concerns M. tuberculosis H37Rv. Put plainly: microbe, parasite or virus in culture. Type of series: cell-based. The following applies: Mycobacterium tuberculosis, read-out: 7H9-ADC MIC.
The format of series [5] is in vitro ADME. The following applies: female, CD1, mouse, 0.5 μM, pH 7.4. As to the method:
Test compound (0.5 μM) was incubated with female CD1 mouse liver microsomes (Xenotech LLC; 0.5 mg/mL, 50 mM potassium phosphate buffer, pH 7.4), and the reaction started with addition of excess NADPH (8 mg/mL, 50 mM potassium phosphate buffer, pH 7.4). Immediately, at time zero, and then at 3, 6, 9, 15, and 30 min, an aliquot (50 μL) of the incubation mixture was removed and mixed with acetonitrile (100 μL) to stop the reaction. Internal standard was added to all samples; the samples were centrifuged to sediment precipitated protein, and the plates were then sealed prior to UPLC-MS/MS analysis using a Quattro Premier XE (Waters Corporation, USA). XLfit (IDBS, UK) was used to calculate the exponential decay and consequently the rate constant (k) from the ratio of peak area of test compound to internal standard at each time point. The rate of intrinsic clearance (Cli) of each test compound was then calculated using the following calculation. [drawing 1] where V (mL/mg protein) is the incubation volume/mg protein added and microsomal protein yield is taken as 52.5 mg protein/g liver. Verapamil (0.5 μM) was used as a positive control to confirm acceptable assay performance.

The next series in a line: physchem. The following applies: for solubility kinetic: water, kinetic from dmso stock. Type of series: physicochemical. As to the method: The aqueous solubility of the test compounds was measured using laser nephelometry. Compounds were subject to serial dilution from 10 to 0.5 mM in DMSO. An aliquot was then mixed with Milli-Q water to obtain an aqueous dilution plate with a final concentration range of 250–12 μM, with a final DMSO concentration of 2.5%. Triplicate aliquots were transferred to a flat bottomed polystyrene plate which was immediately read on the NEPHELOstar (BMG Lab Technologies). The amount of laser scatter caused by insoluble particulates (relative nephelometry units, RNU) was plotted against compound concentration using a segmental regression fit, with the point of inflection being quoted as the compounds aqueous solubility (μM).

Converted amounts (≈) assume the structure as drawn.

The IC50 is the concentration needed to halve the response being measured. For orientation: kinetic solubility means solubility judged after dilution from a stock solution rather than from solid.

T1 sequence (P95160 whole entry): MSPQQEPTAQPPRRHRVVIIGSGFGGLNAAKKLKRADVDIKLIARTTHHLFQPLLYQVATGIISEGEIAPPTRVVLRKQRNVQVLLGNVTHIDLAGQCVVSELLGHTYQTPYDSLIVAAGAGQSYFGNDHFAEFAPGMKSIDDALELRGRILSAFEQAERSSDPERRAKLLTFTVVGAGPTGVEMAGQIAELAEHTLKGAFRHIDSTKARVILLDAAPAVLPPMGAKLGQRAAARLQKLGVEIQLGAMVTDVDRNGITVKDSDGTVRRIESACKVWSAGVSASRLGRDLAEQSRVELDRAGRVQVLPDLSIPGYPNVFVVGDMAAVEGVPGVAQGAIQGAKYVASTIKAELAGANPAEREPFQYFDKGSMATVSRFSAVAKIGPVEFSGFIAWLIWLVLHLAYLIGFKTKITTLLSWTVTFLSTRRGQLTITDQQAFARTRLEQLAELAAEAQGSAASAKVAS

On to `Cc1csc2nc(SCC(=O)NC3CCCCC3)[nH]c(=O)c12` [Compound 3], for which the MIC in the series with M. tuberculosis H37Rv [1] was 43 µM (≈ 14.5 µg/mL); in the series on M. tuberculosis H37Rv [4] it was > 50 µM. In addition, in series [2], the PFI is 4.7. In series [3], the IC50 was found to be 210 ± 25 nM.

In the case of `O=C(CSc1nc2ccccc2c(=O)[nH]1)NC1CCCCCC1` [Compound 4, N-Cycloheptyl-2-((4-oxo-3,4-dihydroquinazolin-2-yl)thio)acetamide], the MIC in the series on M. tuberculosis H37Rv [1] worked out at 0.3 µM (≈ 0.0994 µg/mL); in the series with M. tuberculosis H37Rv [4], 0.6 µM (≈ 0.199 µg/mL). In series [5], the “Microsomal Cli, mouse” value came to 6.4 mL/min/g. For the same compound, the solubility (kinetic) in “physchem” came to 39 µM (≈ 12.9 µg/mL).

With `O=C(CSc1nc2ccccc2c(=O)[nH]1)NC1CCCC1` [Compound 5, N-Cyclopentyl-2-((4-oxo-3,4-dihydroquinazolin-2-yl)thio)acetamide], the MIC in the series on M. tuberculosis H37Rv [1] is 1 µM (≈ 0.303 µg/mL); with M. tuberculosis H37Rv [4], 1.8 µM (≈ 0.546 µg/mL). In series [5], the “Microsomal Cli, mouse” value came out at 2.5 mL/min/g. The same compound registered a solubility (kinetic) in “physchem” of 101 µM (≈ 30.6 µg/mL).

With `O=C(CSc1nc2ccccc2c(=O)[nH]1)NC1CCC1` [Compound 6, N-Cyclobutyl-2-((4-oxo-3,4-dihydroquinazolin-2-yl)thio)acetamide], the MIC in the series with M. tuberculosis H37Rv [1] and in the series on M. tuberculosis H37Rv [4] was 1.6 µM (≈ 0.463 µg/mL) in each case. In addition, in series [5], the “Microsomal Cli, mouse” value is given as 1.8 mL/min/g. Besides, the solubility (kinetic) in “physchem” was 219 µM (≈ 63.4 µg/mL).

As to `O=C(CSc1nc2ccccc2c(=O)[nH]1)NC1CCCCC1(F)F` (stereo not shown) [Compound 8, N-(2,2-Difluorocyclohexyl)-2-((4-oxo-3,4-dihydroquinazolin-2-yl)thio)acetamide], the results for the MIC with M. tuberculosis H37Rv [1] and in the series with M. tuberculosis H37Rv [4] were 9.4 µM (≈ 3.32 µg/mL) and 12.5 µM (≈ 4.42 µg/mL), respectively. In addition, the “Microsomal Cli, mouse” value in series [5] turned out to be 2.3 mL/min/g. Besides, in the series “physchem”, the kinetic solubility was 219 µM (≈ 77.4 µg/mL).

On to `O=C(CSc1nc2ccccc2c(=O)[nH]1)NC1CCCC(F)(F)C1` (stereo not shown) [Compound 9, N-(3,3-Difluorocyclohexyl)-2-((4-oxo-3,4-dihydroquinazolin-2-yl)thio)acetamide], for which the MIC in the series with M. tuberculosis H37Rv [1] and with M. tuberculosis H37Rv [4] was 4.7 µM (≈ 1.66 µg/mL) each time. Besides, the “Microsomal Cli, mouse” value in series [5] worked out at 2.9 mL/min/g. In the series “physchem”, the solubility (kinetic) turned out to be 187 µM (≈ 66.1 µg/mL).

For the compound `O=C(CSc1nc2ccccc2c(=O)[nH]1)NCC1CCCCC1` [Compound 10, N-(Cyclohexylmethyl)-2-((4-oxo-3,4-dihydroquinazolin-2-yl)thio)acetamide], the MIC with M. tuberculosis H37Rv [1] came to 0.2 µM (≈ 0.0663 µg/mL); with M. tuberculosis H37Rv [4], 0.3 µM (≈ 0.0994 µg/mL). In addition, in series [5], the “Microsomal Cli, mouse” value was found to be 5.9 mL/min/g.

For the compound `CN(C(=O)CSc1nc2ccccc2c(=O)[nH]1)C1CCCCC1` [Compound 14, N-Cyclohexyl-N-methyl-2-((4-oxo-3,4-dihydroquinazolin-2-yl)thio)acetamide], the MIC in the series on M. tuberculosis H37Rv [1] and with M. tuberculosis H37Rv [4] was 50 µM (≈ 16.6 µg/mL) each time. Also, in series [5], the “Microsomal Cli, mouse” value turned out to be 13 mL/min/g. The Kinetic solubility in the series “physchem” is 250 µM.

Consider `CC(Sc1nc2ccccc2c(=O)[nH]1)C(=O)NC1CCCCC1` (stereo not shown) [Compound 15, N-Cyclohexyl-2-((4-oxo-3,4-dihydroquinazolin-2-yl)thio)propanamide], for which the MIC with M. tuberculosis H37Rv [1] and in the series with M. tuberculosis H37Rv [4] was 50 µM (≈ 16.6 µg/mL) throughout. Also, the “Microsomal Cli, mouse” value in series [5] was determined as 7.5 mL/min/g. In the series “physchem”, the Kinetic solubility is 250 µM.

`CC(Sc1nc2ccccc2c(=O)[nH]1)C(=O)N(C)C1CCCCC1` (stereo not shown) [Compound 16, N-Cyclohexyl-N-methyl-2-((4-oxo-3,4-dihydroquinazolin-2-yl)thio)propanamide]: the MIC in the series with M. tuberculosis H37Rv [1] and in the series with M. tuberculosis H37Rv [4] was 50 µM (≈ 17.3 µg/mL) throughout. Besides, the “Microsomal Cli, mouse” value in series [5] turned out to be 50 mL/min/g. This compound also gave a kinetic solubility in the series “physchem” of 250 µM (≈ 86.4 µg/mL).

`O=C(CNc1nc2ccccc2c(=O)[nH]1)NC1CCCCC1` [Compound 17, N-Cyclohexyl-2-((4-oxo-3,4-dihydroquinazolin-2-yl)amino)acetamide]: the MIC with M. tuberculosis H37Rv [1] and in the series with M. tuberculosis H37Rv [4] was 50 µM (≈ 15 µg/mL) in each case. Also, the “Microsomal Cli, mouse” value in series [5] turned out to be 2.1 mL/min/g. In the series “physchem”, this compound gave a kinetic solubility of 250 µM (≈ 75.1 µg/mL).

Regarding `O=C(COc1nc2ccccc2c(=O)[nH]1)NC1CCCCC1` [Compound 18, N-Cyclohexyl-2-((4-oxo-3,4-dihydroquinazolin-2-yl)oxy)acetamide], the MIC came out at 25 µM (≈ 7.53 µg/mL) in the series on M. tuberculosis H37Rv [1] and 50 µM (≈ 15.1 µg/mL) in the series on M. tuberculosis H37Rv [4].

As to `O=C(CCc1nc2ccccc2c(=O)[nH]1)NC1CCCCC1` [Compound 19, N-Cyclohexyl-3-(4-oxo-3,4-dihydroquinazolin-2-yl)propanamide], the MIC in the series with M. tuberculosis H37Rv [1] and in the series on M. tuberculosis H37Rv [4] was 50 µM (≈ 15 µg/mL) in each case. Also, in series [5], the “Microsomal Cli, mouse” value amounted to 1.6 mL/min/g. In the series “physchem”, this compound yielded a kinetic solubility of 250 µM (≈ 74.8 µg/mL).

Regarding `Cn1c(SCC(=O)NC2CCCCC2)nc2ccccc2c1=O` [Compound 20, N-Cyclohexyl-2-((3-methyl-4-oxo-3,4-dihydroquinazolin-2-yl)thio)acetamide], the MIC with M. tuberculosis H37Rv [1] and with M. tuberculosis H37Rv [4] was 50 µM (≈ 16.6 µg/mL) in each case. The “Microsomal Cli, mouse” value in series [5] was 11 mL/min/g.

As for `O=C(CSc1ncc2ccccc2n1)NC1CCCCC1` [Compound 21, N-Cyclohexyl-2-(quinazolin-2-ylthio)acetamide], the MIC in the series on M. tuberculosis H37Rv [1] and with M. tuberculosis H37Rv [4] was 50 µM (≈ 15.1 µg/mL) throughout.

As to `Nc1nc(SCC(=O)NC2CCCCC2)nc2ccccc12` [Compound 22, 2-((4-Aminoquinazolin-2-yl)thio)-N-cyclohexylacetamide], the MIC with M. tuberculosis H37Rv [1] and in the series with M. tuberculosis H37Rv [4] was 50 µM (≈ 15.8 µg/mL) throughout.

As for `O=C(CSc1nc2c(c(=O)[nH]1)CCCC2)NC1CCCCC1` [Compound 23, N-Cyclohexyl-2-((4-oxo-3,4,5,6,7,8-hexahydroquinazolin-2-yl)thio)acetamide], the results for the MIC in the series on M. tuberculosis H37Rv [1] and in the series with M. tuberculosis H37Rv [4] were 1.2 µM (≈ 0.386 µg/mL) and 1.6 µM (≈ 0.514 µg/mL), respectively. Further, the “Microsomal Cli, mouse” value in series [5] came out at 6.6 mL/min/g. Further, the solubility (kinetic) in “physchem” amounted to 250 µM (≈ 80.4 µg/mL).

In the case of `O=C(CSc1nc2c(c(=O)[nH]1)CCC2)NC1CCCCC1` [Compound 24, N-Cyclohexyl-2-((4-oxo-4,5,6,7-tetrahydro-3H-cyclopenta[d]pyrimidin-2-yl)thio)acetamide], the results for the MIC with M. tuberculosis H37Rv [1] and with M. tuberculosis H37Rv [4] were 1.6 µM (≈ 0.492 µg/mL) and 1.2 µM (≈ 0.369 µg/mL), respectively. The “Microsomal Cli, mouse” value in series [5] worked out at 1.2 mL/min/g. Moreover, the solubility (kinetic) in the series “physchem” was determined as 250 µM (≈ 76.9 µg/mL).

`Cc1nc(SCC(=O)NC2CCCCC2)nc(O)c1C` [Compound 25, N-Cyclohexyl-2-((4,5-dimethyl-6-oxo-1,6-dihydropyrimidin-2-yl)thio)acetamide]: the MIC came to 6.3 µM (≈ 1.86 µg/mL) with M. tuberculosis H37Rv [1] and 12.5 µM (≈ 3.69 µg/mL) in the series on M. tuberculosis H37Rv [4]. Further, the “Microsomal Cli, mouse” value in series [5] is reported as 1.1 mL/min/g. The compound further had a solubility (kinetic) in the series “physchem” of 250 µM (≈ 73.9 µg/mL).

As to `O=C(CSc1nc2ccc(F)cc2c(=O)[nH]1)NC1CCC(F)(F)CC1` [Compound 26, N-(4,4-Difluorocyclohexyl)-2-((6-fluoro-4-oxo-3,4-dihydroquinazolin-2-yl)thio)acetamide], the MIC amounted to 0.6 µM (≈ 0.223 µg/mL) in the series with M. tuberculosis H37Rv [1] and 0.8 µM (≈ 0.297 µg/mL) in the series with M. tuberculosis H37Rv [4]. Besides, in series [5], the “Microsomal Cli, mouse” value came to 2.2 mL/min/g. The compound further yielded a kinetic solubility in the series “physchem” of 55 µM (≈ 20.4 µg/mL).

On to `O=C(CSc1nc2cnccc2c(=O)[nH]1)NC1CCC(F)(F)CC1` [Compound 27, N-(4,4-Difluorocyclohexyl)-2-((4-oxo-3,4-dihydropyrido[3,4-d]pyrimidin-2-yl)thio)acetamide], for which the MIC in the series on M. tuberculosis H37Rv [1] amounted to 9.4 µM (≈ 3.33 µg/mL); in the series with M. tuberculosis H37Rv [4], 2.5 µM (≈ 0.886 µg/mL). The “Microsomal Cli, mouse” value in series [5] was found to be 1.6 mL/min/g. The compound also returned a kinetic solubility in “physchem” of 250 µM (≈ 88.6 µg/mL).
